We go through 10 compounds from ChEMBL document CHEMBL1201862, “PubChem BioAssay data set” (2004).

The structures appear in SMILES notation. Structures can show the parent of a compound that is named as a salt.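 Compound exposure: 48 hours, 5 concentrations, 96-well plates. The concentration for 50% growth inhibition is given as GI50.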 The source made the active and inactive calls. No stated cut-off is given here; in the data, active = GI50 up to about 1.1 µM and inactive = higher.

Holding throughout (experiment): NCI tumour cell line growth inhibition, 48 h
Experiment [1] relates to 786-0.
Experiment [2] has as its system ACHN.
In experiment [3] the test system is CAKI-1.
The subject of experiment [4] is CCRF-CEM.
The test system of experiment [5] is EKVX.
Experiment [6] concerns HCT-116.
For experiment [7], the system named is HL-60.
For experiment [8], the system named is HOP-62.
In experiment [9] the test system is HT-29.
The test system of experiment [10] is MDA-MB-231.
Experiment [11] relates to MDA-MB-435.
Experiment [12] deals with MDA-N.
The test system of experiment [13] is NCI-H460.
The test system of experiment [14] is OVCAR-8.
Experiment [15] has as its system PC-3.
In experiment [16] the test system is RPMI-8226.
For experiment [17], the system named is SNB-75.
Experiment [18] relates to TK-10.
The subject of experiment [19] is UACC-62.
Experiment [20] deals with UO-31.

Regarding `C=C1CC(CN2CCC(=O)NC2=O)(c2ccccc2)OC1=O` (centres undefined), the GI50 is 4.47 µM (inactive) in experiment [1]; 9.16 µM (inactive) in experiment [2]; 2.75 µM (inactive) in [3]; 1.84 µM (inactive) in experiment [4]; 18.8 µM (inactive) in experiment [5]; 3.35 µM (inactive) in [6]. Also, the GI50 was 1.62 µM (inactive) in [7]; 21.3 µM (inactive) in experiment [8]; 7.71 µM (inactive) in experiment [9]; 15 µM (inactive) in experiment [10]; 8.89 µM (inactive) in [11]; 10.8 µM (inactive) in [12]. Besides, the GI50 in [13] is 19.4 µM (inactive); in experiment [14] it was 16.4 µM (inactive); in [15] it was 16.1 µM (inactive); in experiment [16] it was 2.19 µM (inactive); in experiment [17], 18.1 µM (inactive); in [18] it was 5.94 µM (inactive). Also, the GI50 was 8.55 µM (inactive) in [19] and 18 µM (inactive) in experiment [20].
Turning to `O=C(O)C1CC(c2ccc(F)cc2)=Nc2ccc(F)cc2S1` (centres undefined), the GI50 in experiment [1], in experiment [2], in experiment [3], in experiment [4], in experiment [5] and in [6] was > 100 µM (inactive) throughout. Further, the GI50 in experiment [7], in experiment [9], in experiment [10], in experiment [11], in experiment [12] and in experiment [13] was > 100 µM (inactive) in each case. The GI50 in experiment [14], in [15], in experiment [16], in [17], in experiment [18] and in experiment [19] was > 100 µM (inactive) each time. Moreover, in [20], the GI50 is > 100 µM (inactive).
With `O=C(O)c1cc2ccccc2c(/N=N/c2ccc(S(=O)(=O)Nc3ccccn3)cc2)c1O`, the GI50 in experiment [1], in experiment [2], in [3], in experiment [4], in experiment [5] and in experiment [6] was > 100 µM (inactive) in each case. Besides, the GI50 in experiment [7], in [8], in [9], in experiment [10], in experiment [11] and in [12] was > 100 µM (inactive) throughout. Also, the GI50 in [13], in [14], in [15], in experiment [16], in experiment [17] and in [18] was > 100 µM (inactive) throughout. Also, the GI50 in experiment [19] and in [20] was > 100 µM (inactive) in each case.
As for `COc1ccc(C2Oc3ccc(Cl)cc3C=C2[N+](=O)[O-])cc1OC` (centres undefined), the GI50 was 0.388 µM (active) in experiment [1]; 1.43 µM (inactive) in experiment [2]; 1.67 µM (inactive) in experiment [3]; 0.0413 µM (active) in [4]; 2.72 µM (inactive) in [5]; 0.426 µM (active) in experiment [6]. The GI50 is 0.204 µM (active) in experiment [7]; 1.49 µM (inactive) in [8]; 1 µM (active) in experiment [9]; 1.27 µM (inactive) in experiment [10]; 0.15 µM (active) in experiment [11]; 0.231 µM (active) in experiment [12]. The GI50 in experiment [13] is 2.38 µM (inactive); in [14], 1.12 µM (active); in experiment [15], 1.32 µM (inactive); in [16], 0.229 µM (active); in [17] it was 1.13 µM (inactive); in experiment [18], 1.51 µM (inactive). Moreover, the GI50 in experiment [19] was 1.5 µM (inactive); in experiment [20], 2 µM (inactive).
Consider `CC(=O)O[C@@]12CO[C@@H]1C[C@H](O)[C@@]1(C)C(=O)[C@H](O)C3=C(C)[C@@H](OC(=O)[C@H](O)[C@@H](NC(=O)OC(C)(C)C)c4ccccc4)C[C@@](O)([C@@H](OC(=O)c4ccccc4)[C@H]21)C3(C)C` [DOCETAXEL], for which the GI50 in [1] is < 0.01 µM (active); in experiment [2], 0.59 µM (active); in [3] it was 0.0417 µM (active); in experiment [4] it was < 0.01 µM (active); in [5], 3.72 µM (inactive); in experiment [6], < 0.01 µM (active). For the same compound, the GI50 in [7] is < 0.0631 µM (active); in experiment [8] it was < 0.01 µM (active); in [9], < 0.01 µM (active); in experiment [10], 0.0216 µM (active); in experiment [11] it was 0.000149 µM (active); in experiment [12] it was 0.0001 µM (active). The GI50 in experiment [13] was 0.00291 µM (active); in experiment [14] it was < 0.01 µM (active); in experiment [15], 0.00578 µM (active); in experiment [16] it was < 0.01 µM (active); in experiment [17], < 0.01 µM (active); in experiment [18], 0.225 µM (active). Moreover, the results for the GI50 in experiment [19] and in experiment [20] were < 0.01 µM (active) and 0.885 µM (active), respectively.
Consider `CO[C@@H]1C[C@H]2N3CC[C@@]2(c2cc4c(cc2C3)OCO4)[C@H]2O[C@@H]12`, for which the GI50 in experiment [1], in experiment [2], in [3], in experiment [4], in experiment [5] and in experiment [6] was > 100 µM (inactive) throughout. Moreover, the GI50 in experiment [7], in experiment [8], in experiment [9], in [10], in experiment [11] and in [12] was > 100 µM (inactive) in each case. Further, the GI50 in experiment [13], in experiment [14], in [15], in [16], in experiment [17] and in experiment [18] was > 100 µM (inactive) throughout. Further, the GI50 in experiment [19] and in [20] was > 100 µM (inactive) in each case.
As to `CC1(C)OC1CC/C(=C/CBr)CBr` (centres undefined), the GI50 in experiment [1] was 15.4 µM (inactive); in [2], 16.9 µM (inactive); in experiment [3], 17.9 µM (inactive); in experiment [4], 8.17 µM (inactive); in [5], 18.1 µM (inactive); in experiment [6], 18.1 µM (inactive). Also, the GI50 in [7] is 4.92 µM (inactive); in experiment [8], 17.3 µM (inactive); in [9], 14.9 µM (inactive); in [10], 15.7 µM (inactive); in experiment [11], 17.8 µM (inactive); in experiment [12] it was 15.3 µM (inactive). The GI50 in experiment [13] is 15 µM (inactive); in [15], 15.6 µM (inactive); in [16], 12.9 µM (inactive); in experiment [17], 6.82 µM (inactive); in [18] it was 18.2 µM (inactive); in experiment [20] it was 14.4 µM (inactive).
As for `O=C(Nc1nnc(-c2ccccc2)o1)C(SC(=S)N1CCCC1)c1ccccc1` (centres undefined), the GI50 in [1] is 26.4 µM (inactive); in [2], 26.2 µM (inactive); in [3] it was 29.9 µM (inactive); in [4], 13.4 µM (inactive); in [5] it was 22.3 µM (inactive); in experiment [6], 25.1 µM (inactive). Further, the GI50 is 19.9 µM (inactive) in experiment [7]; 24.8 µM (inactive) in experiment [8]; 35.1 µM (inactive) in experiment [9]; 39 µM (inactive) in experiment [10]; 29.7 µM (inactive) in experiment [11]; 32.1 µM (inactive) in experiment [12]. Further, the GI50 in experiment [13] was 16.4 µM (inactive); in [14], 32 µM (inactive); in experiment [15] it was 27.8 µM (inactive); in experiment [16] it was 24.3 µM (inactive); in experiment [17], 40.8 µM (inactive); in [18] it was 51.9 µM (inactive). In addition, the GI50 in [20] was 13.3 µM (inactive).
`CN[C@@H]1[C@H](O)[C@H](NC)[C@H]2O[C@@]3(O)C(=O)C[C@@H](C)O[C@H]3O[C@@H]2[C@H]1O` [SPECTINOMYCIN SULFATE]: the GI50 was > 10 µM (inactive) in [1]; > 100 µM (inactive) in experiment [2]; > 100 µM (inactive) in experiment [3]; > 100 µM (inactive) in experiment [4]; > 100 µM (inactive) in experiment [5]; > 100 µM (inactive) in experiment [6]. Moreover, the GI50 in experiment [7], in experiment [8], in experiment [9], in [10], in experiment [11] and in [12] was > 100 µM (inactive) each time. The GI50 in experiment [13], in experiment [14], in experiment [15], in experiment [16], in [17] and in [19] was > 100 µM (inactive) each time. Moreover, in experiment [20], the GI50 is > 100 µM (inactive).
For `CN1CCC(O)(OC(=O)C(c2ccccc2)C2(O)CCCC2)CC1` (centres undefined), the GI50 in [1], in experiment [2], in experiment [3], in [4], in experiment [5] and in experiment [6] was > 100 µM (inactive) in each case. Besides, the GI50 in [7], in experiment [8], in [9], in experiment [10], in experiment [11] and in experiment [12] was > 100 µM (inactive) each time. Besides, the GI50 in experiment [13], in [14], in [15], in [16], in [17] and in experiment [18] was > 100 µM (inactive) each time. The GI50 in [19] is > 100 µM (inactive).
